Experimental data reported in patent US10688116B2, “Treatment of metabolic disorders in equine animals” (Boehringer Ingelheim Vetmedica GmbH, priority 2014, dated 2020).

Assay: Physicochemical properties of the crystalline complex

N#Cc1ccc([C@@H]2O[C@H](CO)[C@@H](O)[C@H](O)[C@H]2O)cc1Cc1ccc(C2CC2)cc1.O=C(O)[C@@H]1CCCN1 [crystalline complex]
tendency to absorb moisture: does not show a high tendency to absorb moisture
physical and chemical stability (various environmental conditions and during production of a medicament): high physical and chemical stability
